Assay results reported in patent publication US12263154B2, “Composition using 4′,6,7-trimethoxyisoflavone and catechol for managing pulmonary fibrosis” (A-CHEMBIO CO., LTD, priority 2020, dated 2025).

What was measured:
cells in BALF = experiment: Change in cell number in bronchoalveolar lavage fluid (BALF), pulmonary fibrosis animal model; assay type: in vivo, mice; settings: increased in BLM-administered group; FIG. 10
Description: (§1) The airways of the mice were incised, and bleomycin (3 mg/kg, BLM) was injected into the airways. After injection, the incision site was sutured with nylon thread, samples of BCT and/or BCC were administered daily 24 hours after bleomycin was injected. Mice were raised to 28 days from the start date of the experiment and sacrificed on day 29 to separate the broncho-alveolar lavage fluid (BALF) and lung tissue and used in further experiments.
Pulmonary fibrosis is characterized by an increase in the total number of cells and the percentage of neutrophils in the BALF fluid.
After collecting BALF from each experimental animal group, neutrophils and alveolar macrophages, including total cells, were measured. The method of measuring the total number of cells in BALF, the ratio of neutrophils and alveolar macrophages, etc., is as follows. BALF was mixed with trypan blue in a ratio of 1:1, and then the total number of cells was counted as ×104/BALF 1 mL using a hemocytometer (Fisher Scientific, PA, USA). The prepared BALF was spread on a slide glass and then stained with Diff Quik (manufactured by Sysmex Corporation, USA), the number of neutrophils and alveolar macrophages among a total of 200 cells was counted under a microscope, and the ratio was measured and recorded.

[1] = tested on: major markers of pulmonary fibrosis in lung tissue; experiment: Western blot of protein expression level using lung tissue, pulmonary fibrosis animal model; assay type: in vivo, mice; settings: compared to BLM-induced group; FIG. 9
Description: as §1
Animal models of each control group and the experimental group raised for 28 days were sacrificed, and lung tissue samples and serum samples were obtained from these animal models, respectively, and stored in a deep freezer at −70° C. Western blotting was performed for α-Sma, TGF-β1, Fibronectin, and E-cadherin proteins known as major markers of pulmonary fibrosis.
Lung tissue was put into T-PER buffer (lysis buffer, Thermo. Scientific, Wilmington, DE, USA) as a standard of 500 μL per 50 mg of tissue, and the tissue was homogenized using a homogenizer. The homogenized tissue was centrifuged at 13,000 rpm, and the supernatant was used as a sample for Western blot. The concentration of the tissue homogenate was quantified using a BCA Protein assay kit (Thermo. Scientific, Wilmington, DE, USA) solution. After mixing the protein and 6× sample buffer (1 mL of glycerol, 0.5 mL of β-Mercaptoethanol, 3 mL of 10% SDS, 1.25 mL of 1 M Tris-HCl, 1-2 μg of bromophenol blue), electrophoresis was performed on SDS polyacrylamide gel. After transferring to Nitrocellulose Membrane (Millipore, Billerica, MA, USA) and blocking with 5% non-fat skim milk, protein expression levels of related factors were measured using various antibodies, and whether the protein amount was the same was confirmed using actin. Each of the primary antibodies was diluted and reacted at room temperature for 4 hours, washed 3 times with TBST, the secondary antibody was diluted at 1:5,000 and reacted at room temperature for 30 minutes. After washing with TBST, a band was obtained after light emission with ECL solution (LPS solution, Korea, Seoul).

[2] = tested on: EMT mechanism-related factors in A549 cells; experiment: Western blot of EMT mechanism-related factors; assay type: cell-based; settings: BCT 10 μM, BCC 0.5 μM; for expression of E-cadherin: decreased by TGF-β1 treatment; for expression of E-cadherin / expression of Cyr61 / expression of Fibronectin / expression of Integrin β3 / expression of SMA2/3 / expression of Vimentin / expression of α-Sma: FIG. 4; for expression of Cyr61 / expression of Fibronectin / expression of Integrin β3 / expression of SMA2/3 / expression of Vimentin / expression of α-Sma / expression of pAKT / expression of pERK: increased by TGF-β1 treatment; for expression of pAKT / expression of pERK: FIG. 5
Description: 2×10^6 A549 cells were attached to a 100 mm culture vessel for 24 hours, treated with TGF-β1, TGF-β1 and sample BCT (10 μM) and/or TGF-β1 and sample BCC (0.5 μM)) and cultured. After collecting all of the cultured cells, the cell precipitate was dissolved in a cell lysate RIPA lysis buffer (LPS solution, Korea, Seoul), followed by centrifugation at 13,000 rpm for 20 minutes to obtain a supernatant. The total amount of protein was quantified using the BCA Protein assay kit (Thermo. Scientific, Wilmington, DE, USA) solution. After mixing the protein and 6× sample buffer (1 mL of glycerol, 0.5 mL of β- Mercaptoethanol, 3 mL of 10% SDS, 1.25 mL of 1 M Tris-HCl, 1-2 μg of bromophenol blue), electrophoresis was performed on SDS polyacrylamide gel. After transferring to Nitrocellulose Membrane (Millipore, Billerica, MA, USA) and blocking with 5% non-fat skim milk, protein expression levels of related factors were measured using various antibodies, and whether the protein amount was the same was confirmed using actin. Each of the primary antibodies was diluted and reacted at room temperature for 4 hours, washed 3 times with TBST, the secondary antibody was diluted at 1:5,000 and reacted at room temperature for 30 minutes. After washing with TBST, a band was obtained after light emission with ECL solution (LPS solution, Korea, Seoul). The results are shown in FIG. 4 for the Smad-dependent factor and FIG. 5 for the Smad-independent factor.

lung fibrosis = experiment: Histopathological examination in bleomycin pulmonary fibrosis animal model; assay type: in vivo, mice; settings: BLM 3 mg/kg into airways, samples administered daily; for size of the fibrosis area according to the tissue scoring system (Ashcroft score): Masson's trichrome, graph at bottom of FIG. 8; for size of the increased fibrosis area (H&E staining): lung on day 29, FIG. 8
Description: The airways of the mice were incised, and bleomycin (3 mg/kg, BLM) was injected into the airways. After injection, the incision site was sutured with nylon thread, samples of BCT and/or BCC were administered daily 24 hours after bleomycin was injected. Mice were raised to 28 days from the start date of the experiment and sacrificed on day 29 to separate the broncho-alveolar lavage fluid (BALF) and lung tissue and used in further experiments. In order to evaluate lung fibrosis, animal models of each control group and experimental group were sacrificed, and the lungs were extracted from these animal models, fixed in 10% neutral buffered formalin (NBF), and then embedded with paraffin to produce tissue sections with a thickness of 2-4 um. After the sections were prepared, Hematoxylin-Eosin staining and Masson's trichrome staining were performed for comparison of histological findings and observed with an optical microscope. H&E staining was performed to evaluate inflammation and epithelial cell hypertrophy due to lung fibrosis, and Masson's trichrome staining was used to evaluate fibrosis using the following tissue scoring method (Scoring system, Ashcroft score). [table]

[3] = tested on: human lung fetal cells (MRC-5); experiment: MTT cytotoxicity assessment; assay type: cell-based; settings: 24 hours and 48 hours, FIG. 1
Description: (§2) Using the MTT (3-(4,5-dimethylthiazol-2yl)-2,5-diphenyl-2H-tetrazolium bromide) assay was applied to investigate the effect of TMF (BCT) and catechol (BCC) on cell proliferation. 5×10^3 cells/well were placed in a 96-well plate and incubated for 24 hours at 37° C., 5% CO2 incubator. Then, each sample was treated in each well according to the concentration and then incubated for 24 hours. Then, after washing with PBS, 20 μL of MTT dissolved in PBS and 200 μL of FBS-free DMEM were treated in each well and then incubated for 4 hours under the same conditions after blocking the light. After 4 hours, the culture solution was removed, treated with 200 μL of DMSO (dimethyl sulfoxide), and left at 37° C. for 2 hours, and absorbance was measured at 570 nm using a microplate reader.
(§3) The cell viability after 24 hours and 48 hours is shown in FIG. 1 as a percentage compared to the control group, the untreated sample group.

muscle cells (C2C12) = experiment: MTT cytotoxicity assessment; assay type: cell-based; settings: 24 hours and 48 hours, FIG. 1
Description: as §2, §3

[4] = tested on: human fibroblasts (HDF, Human Dermal Fibroblast); experiment: MTT cytotoxicity assessment; assay type: cell-based; settings: 24 hours and 48 hours, FIG. 1
Description: as §2, §3

[5] = tested on: alveolar epithelial A549 cells; experiment: Cell penetration inhibition (Matrigel trans-well), EMT induced by TGF-β1; assay type: cell-based; settings: TGF-β1-treated A549; BCT 10 μM, BCC 0.5 μM; 24 hours; FIG. 3
Description: As EMT progresses, the proliferation and movement of epithelial cells increases, cell penetration increases, and cell morphology changes, thereby confirming EMT inhibitory efficacy and evaluating the degree of expression of mechanism-related factors.
Trans-well inserts (Corning, USA) were coated with Matrigel® (Corning) at 2 mg/L. Dilute A549 cells to about 5×10^5/mL in 200 μl of serum-free media, and TGF-β1, TGF-β1 and sample BCT (10 μM) or TGF-β1 and sample BCC (0.5 μM) was added and dispensed into trans-well inserts. The cells were cultured for 24 hours by dispensing a medium containing 10% serum in the receive chambers. After the culture was completed, the cells remaining in the insert were removed, and the cells penetrating the receiving chamber were stained with crystal violet and photographed under a microscope.

[6] = tested on: alveolar epithelial A549 cells; experiment: Cell morphological changes, EMT induced by TGF-β1; assay type: cell-based; settings: changed by TGF-β1 treatment, BCT 10 μM, BCC 0.5 μM, 48 hours, FIG. 6
Description: A549 cells were seeded on a 60 mm plate at 1×10^5 /mL and cultured for 24 hours. Then, 5 mL of a medium containing TGF-β1, TGF-β1 and sample BCT (10 μM) and/or TGF-β1 and sample BCC (0.5 μM) was added to each well and incubated for another 48 hours. After culturing, the cells were checked under a microscope, and images were taken.

[7] = tested on: alveolar epithelial A549 cells; experiment: Cell migration inhibition (scratch), EMT induced by TGF-β1; assay type: cell-based; settings: TGF-β1-treated A549; BCT 10 μM, BCC 0.5 μM; 72 hours; FIG. 2
Description: As EMT progresses, the proliferation and movement of epithelial cells increases, cell penetration increases, and cell morphology changes, thereby confirming EMT inhibitory efficacy and evaluating the degree of expression of mechanism-related factors. A549 cells were seeded at 1×10^5 cells in 1 mL per well in a 6-well plate and cultured at 37° C. under 5% CO 2 for 24 hours. After 24 hours, a single cell layer was scratched with a 1 mL tip and a medium containing TGF-β1, TGF-β1, and sample BCT (10 μM) or TGF-β1, and sample BCC (0.5 μM) was added to each well. After culturing for 72 hours, the degree of cell migration was confirmed under a microscope, and images were taken.

Oc1ccccc1O [BCC, 1,2-dihydroxybenzene]
number of lymphocytes in BALF (cells in BALF): significantly decreased
number of neutrophils in BALF (cells in BALF): significantly decreased
total number of cells in BALF (cells in BALF): significantly decreased
E-cadherin expression in lung tissue [1]: increased
expression level of TGF-β1 in lung tissue [1]: decreased
expression level of fibronectin in lung tissue [1]: decreased
expression level of α-SMA in lung tissue [1]: decreased
expression of E-cadherin [2]: increased
expression of Cyr61 [2]: decreased
expression of Fibronectin [2]: decreased
expression of Integrin β3 [2]: decreased
expression of SMA2/3 [2]: decreased
expression of Vimentin [2]: decreased
expression of α-Sma [2]: decreased
expression of pAKT [2]: decreased
expression of pERK [2]: decreased
size of the fibrosis area according to the tissue scoring system (Ashcroft score) (lung fibrosis): reduced
size of the increased fibrosis area (H&E staining) (lung fibrosis): reduced
cytotoxicity (cell viability) [3]: did not show any particular cytotoxicity
cytotoxicity (cell viability) (muscle cells (C2C12)): did not show any particular cytotoxicity
cytotoxicity (cell viability) [4]: did not show any particular cytotoxicity
number of cells penetrating into the receiving chamber [5]: decreased
cell morphology [6]: recovered similarly to the control
cell migration [7]: decreased

COc1ccc(-c2coc3cc(OC)c(OC)cc3c2=O)cc1 [BCT, 4′,6,7-trimethoxyisoflavone]
number of lymphocytes in BALF (cells in BALF): significantly decreased
number of neutrophils in BALF (cells in BALF): significantly decreased
total number of cells in BALF (cells in BALF): significantly decreased
E-cadherin expression in lung tissue [1]: increased
expression level of TGF-β1 in lung tissue [1]: decreased
expression level of fibronectin in lung tissue [1]: decreased
expression level of α-SMA in lung tissue [1]: decreased
expression of E-cadherin [2]: increased
expression of Cyr61 [2]: decreased
expression of Fibronectin [2]: decreased
expression of Integrin β3 [2]: decreased
expression of SMA2/3 [2]: decreased
expression of Vimentin [2]: decreased
expression of α-Sma [2]: decreased
expression of pAKT [2]: decreased
expression of pERK [2]: decreased
size of the fibrosis area according to the tissue scoring system (Ashcroft score) (lung fibrosis): reduced
size of the increased fibrosis area (H&E staining) (lung fibrosis): reduced
cytotoxicity (cell viability) [3]: did not show any particular cytotoxicity
cytotoxicity (cell viability) (muscle cells (C2C12)): did not show any particular cytotoxicity
cytotoxicity (cell viability) [4]: did not show any particular cytotoxicity
number of cells penetrating into the receiving chamber [5]: decreased
cell morphology [6]: recovered similarly to the control
cell migration [7]: decreased
